Patent US20130189764A1, “SELECTIVE GROWTH MEDIA” (Oxide Limited, priority 2000, published 2013)
In brackets after ≈: the same amount, converted by molar mass.

Assays:
[1] = tested on: Bacillus subtilis strain OCC 214; assay: growth on nutrient agar streak plates, pure culture (Example 1); type: cell-based; details: B. subtilis OCC214, nutrient agar, 0-10 mM tested
Source text: In example 1 the sensitivity of Bacillus subtilis strain OCC 214 to alaphosphin or AEP was investigated. […] The organism is known to be LALA-ve, so the observations agree with the known characteristics of the organism.

[2] = tested on: Salmonella typhimurium OCC 1870; assay: growth on nutrient agar streak plates, pure culture (Example 2); type: cell-based; details: S. typhimurium OCC 1870, nutrient agar, 0-10 mM tested
Source text: Example 1 was repeated, using Salmonella typhimurium OCC 1870 as the test organism. The results are shown in FIG. 3, which uses the same key as FIG. 2.

[3] = tested on: Enterococcus faecalis OCC 640; assay: growth on nutrient agar streak plates, pure culture (Example 3); type: cell-based; details: E. faecalis OCC 640, nutrient agar, 0-10 mM tested
Source text: Example 1 was repeated using Enterococcus faecalis OCC 640 as the test organism.

[4] = tested on: Klebsiella pneumoniae CMCC 3077; assay: growth on nutrient agar streak plates, pure culture (Example 4); type: cell-based; details: K. pneumoniae CMCC 3077, nutrient agar, 0-10 mM tested
Source text: Example 1 was repeated using Klebsiella pneumoniae CMCC 3077 as the test organism. The results are shown in FIG. 5, and are qualitatively similar to those obtained in example 2.

K. pneumoniae CMCC 3077 = assay: growth on nutrient agar, mixed culture with S. aureus (Example 6); type: cell-based, Klebsiella pneumoniae; details: K. pneumoniae in mixed culture with S. aureus
Source text: Example 1 was repeated, this time using a mixed culture of K. pneumoniae CMCC 3077 and S. aureus OCC 102. The results for growth in the presence of AEP or alaphosphin are shown in FIGS. 7 and 8 respectively: empty columns represent growth of S. aureus, the shaded columns represent growth of K. pneumoniae. […] Accordingly, there is a considerable alaphosphin concentration range over which S. aureus will readily grow whilst K. pneumoniae will be inhibited. Even if K. pneumoniae cells lyse due to the toxic effect of AEP released intracellularly, the AEP is not toxic for S. aureus at the concentrations involved.

S. aureus OCC 102 = assay: growth on nutrient agar, mixed culture with E. faecalis (Example 7); type: cell-based, Staphylococcus aureus; details: S. aureus in mixed culture with E. faecalis
Source text: Example 6 was repeated, this time using a mixed culture of S. aureus OCC 102 and E. faecalis OCC 604, in the presence of AEP or alaphosphin. The empty columns represent growth of S. aureus, the shaded columns represent growth of E. faecalis. […] Thus alaphosphin could be used, when incorporated at an appropriate concentration in a medium, to inhibit growth of organisms such as Enterococci in samples whilst allowing Staphylococci to grow and be detected.

[5] = tested on: Salmonella typhimurium OCC 722; assay: Bioscreen growth, comparison with conventional selective agents (Example 12); type: cell-based; details: 60 μg/ml alaphosphin, Lab-Lemco broth + phosphate buffer pH 6.0
Experimental: (§1) The following is an example to illustrate the beneficial lower toxic properties of the new selective agents towards the target microorganism, in this case Salmonella. Two selective agents, cefsulodin and novobiocin, as used conventionally in Salmonella isolation from foods (Humphrey and Whitehead, 1992 British Poultry Science 33, 761-768) were compared with alaphosphin. All were dissolved in deionised water, filter sterilised, and an amount of the solution added to either autoclaved Lab-Lemco broth+phosphate buffer (20 g/l; pH 6.0; ala-AEP) or Buffered Peptone Water (pH 6.8; cefsulodin and novobiocin) to give final concentrations of 66, 16.5 and 11 μg/ml respectively. [The different pH values reflect the different pH optima of the selective agents (ala-AEP was also subsequently used in BPW at pH 6.8 and similar results obtained)]. Volumes (300 μl) were then pipetted into the wells of Bioscreen microtitre plates and 30 μl quantities of 1 in 10,000 dilutions of overnight cultures of E. coli OCC 2129 and Salmonella typhimurium OCC 722, added. Plates were then covered, incubated at 37° C., and the opacity of the organism suspensions measured using a Bioscreen instrument.
(§2) Typical results are shown in FIGS. 17-19, which are graphs of optical density against time for S. typhimurium (circles) and E. coli (squares) in the presence (empty symbols) or absence (filled symbols) of 15 μg/ml cefsulodin (FIG. 17), 10 μg/ml novobiocin (FIG. 18) or 60 μg/ml alaphosphin (FIG. 19).

E. coli OCC 2129 = assay: as above; type: cell-based, Escherichia coli; details: 60 μg/ml alaphosphin
Experimental: as §1, §2

Citrobacter freundii 370 = assay: MIC in DMSal medium (Example 17); type: cell-based; details: Citrobacter freundii, 370
E. coli 607 = assay: MIC in DMSal medium (Example 17); type: cell-based; details: Escherichia coli, 607
[6] = tested on: Salmonella typhimurium 722; assay: MIC in DMSal medium (Example 17); type: cell-based; details: Salmonella enterica, TYPHIMURIUM
Experimental: (§3) Isoleucyl-AEP and sarcosyl-alanyl-AEP were compared to ala-AEP (all in DMSal medium) for the ability to selectively recover two clinically important pathogenic bacteria: Salmonella and Staphylococcus aureus.
For selective growth of Salmonella inhibition of Citrobacter, Enterobacter sakazakii and E. coli is important. […] Sarcosyl-alanyl-AEP used at a concentration of 1.0 μg/ml is sufficient to inhibit the growth of all three undesired bacteria while having no effect on growth of Salmonella typhimurium. […] Alternatively, a concentration of 2.0 μg/ml of isoleucyl-AEP is required to inhibit the growth of Citrobacter, Enterobacter sakazakii and E. coli and this concentration has no effect on the Salmonella typhimurium strain tested.

[7] = tested on: Enterococcus faecalis 581; assay: MIC in DMSal medium (Example 17); type: cell-based; details: Enterococcus faecalis, 581
Source text: as §3

S. aureus (MRSA) 934 = assay: MIC in DMSal medium (Example 17); type: cell-based; details: Staphylococcus aureus, MRSA
Source text: as §3

S. aureus 198 = assay: MIC in DMSal medium (Example 17); type: cell-based; details: Staphylococcus aureus, 198
Source text: as §3

S. aureus ss aureus 2355 = assay: MIC in DMSal medium (Example 17); type: cell-based; details: Staphylococcus aureus
Source text: as §3

[8] = tested on: Enterococcus faecalis 640; assay: MIC in DMSal medium (Example 17); type: cell-based; details: Enterococcus faecalis, 640

C[C@H](N)C(=O)N[C@@H](C)P(=O)(O)O [alaphosphin, L-alanyl-L-1-aminoethylphosphonic acid]
sensitivity of growth (in words) [1]: completely insensitive | concentration at which growth is completely inhibited [2]: ≥ 5 mM | concentration at which growth is completely inhibited [3]: ≥ 2 mM | concentration at which growth is completely inhibited [4]: ≥ 2 mM | concentration at which growth is completely inhibited (K. pneumoniae CMCC 3077): above 1 mM | concentration at which growth is inhibited (S. aureus OCC 102): ≥ 10 mM | effect on growth of S. typhimurium [5]: no significant difference | growth of E. coli (E. coli OCC 2129): completely inhibited | MIC (Citrobacter freundii 370): 1 µg/mL (≈ 5.1 µM) | MIC (E. coli 607): 0.1 µg/mL (≈ 0.51 µM) | MIC [6]: 2 µg/mL (≈ 10.2 µM) | MIC [7]: 10 µg/mL (≈ 51 µM) | MIC (S. aureus (MRSA) 934): 25 µg/mL (≈ 127 µM) | MIC (S. aureus 198): 5 µg/mL (≈ 25.5 µM) | MIC (S. aureus ss aureus 2355): 10 µg/mL (≈ 51 µM) | MIC [8]: 10 µg/mL (≈ 51 µM)
